Experimental data reported in patent US11331289B2, “Antimicrobial composition” (priority 2017, dated 2022).

How the values were obtained:
S. aureus n°16 302 = assay: Time-killing curve, broth macrodilution; format: cell-based, Staphylococcus aureus
Protocol: (§1) The time-killing curve is used to determine the bactericidal or bacteriostatic activity of the antibimicrobial substances. Time-killing curves of Oxyclozanide against canine isolates of Staphylococcus aureus and Staphylococcus pseudintermedius were obtained using broth macrodilution method. After contact of different fixed amounts of Oxyclozanide with an inoculum, viable bacteria are counted immediately after contact and after 1, 3, 6 and 24 hours. Counting is performed on agar medium without antimicrobial substance.
(§2) Results are analyzed by plotting log10 CFU/ml versus time for each tested concentration. Bactericidal activity as defined by 99.9% killing of the inoculum is determined from time-killing curves by noting the presence of a ≥3 log10 decrease in CFU/ml.
(§3) Bacterial strains were sub-cultured twice from one cryobead on Mueller Hinton agar and incubated at 37° C. for 18-24 hours. From the second subcultures, isolated colonies were transferred into tubes containing 2 ml of Mueller Hinton Broth in order to obtain bacterial suspensions at 10^8 CFU/ml, knowing that an optical density of 0.1 at 620 nm corresponds to bacterial suspension at 10^8 CFU/ml. Then, bacterial suspensions were adjusted between 5 10^7 and 1 10^8 CFU/ml by dilution in Mueller Hinton broth.
(§4) For each concentration of Oxyclozanide to be tested, 50 μl of working solution concentrated 100× and […] of inoculum were added to 5 ml of Mueller-Hinton broth. Thus, the range of tested concentrations was from 0.125 to 8 μg/ml and the concentration of micro-organism was between 1 10^6 and 2 10^6 CFU/ml.
(§5) At the same time, a tube without Oxyclozanide was prepared: 50 μl of DMSO and 100 μl of inoculum were added to 5 ml of Mueller-Hinton broth and used as growth control. Tubes were incubated at 36° C. under agitation.
(§6) The numbers of viable bacteria were determined immediately after contact (TO) and after 1, 3, 6 and 24 h of incubation.
(§7) At each time, samples of each tube were taken and dilutions were performed in Mueller-Hinton broth. Then, dilutions were spread on Mueller Hinton agar with spiral plater. After 18 h of incubation at 36° C., counting of colonies was performed with automatic colony counter which determine the concentrations of viable bacteria. The technique employed made it possible to quantify bacterial concentrations as low as 20 CFU/ml.
(§8) Time-killing curves were plotted for each concentration of Oxyclozanide using Microsoft Excel software. The number or surviving bacteria was expressed as log10 CFU/ml. The time-killing curves of each strain represent the decrease in the viable bacteria count as a function of time for the Oxyclozanide concentrations concerned.
(§9) Bactericidal activity as defined by 99.9% killing of the inoculum is determined from time-killing curves by noting the presence of a ≥3 log10 decrease in CFU/ml.

S. aureus n°16 315 = assay: Time-killing curve, broth macrodilution; format: cell-based, Staphylococcus aureus
Protocol: as §1, §2, §3, §4, §5, §6, §7, §8, §9

O=C(Nc1cc(Cl)cc(Cl)c1O)c1c(O)c(Cl)cc(Cl)c1Cl [Oxyclozanide]
Bacteria reducing rate (S. aureus n°16 302; 0.25 μg/ml (½ MIC), 1 h): 0.0 Δ log10 CFU/ml | Bacteria reducing rate (S. aureus n°16 302; 0.25 μg/ml (½ MIC), 3 h): 0.1 Δ log10 CFU/ml | Bacteria reducing rate (S. aureus n°16 302; 0.25 μg/ml (½ MIC), 6 h): 0.6 Δ log10 CFU/ml | Bacteria reducing rate (S. aureus n°16 302; 0.25 μg/ml (½ MIC), 24 h): 1.7 Δ log10 CFU/ml | Bacteria reducing rate (S. aureus n°16 302; 0.5 μg/ml (MIC), 1 h): 0.0 Δ log10 CFU/ml | Bacteria reducing rate (S. aureus n°16 302; 0.5 μg/ml (MIC), 3 h): 0.0 Δ log10 CFU/ml | Bacteria reducing rate (S. aureus n°16 302; 0.5 μg/ml (MIC), 6 h): −0.3 Δ log10 CFU/ml | Bacteria reducing rate (S. aureus n°16 302; 0.5 μg/ml (MIC), 24 h): 1.6 Δ log10 CFU/ml | Bacteria reducing rate (S. aureus n°16 302; 1 μg/ml (2 MIC), 1 h): 0.0 Δ log10 CFU/ml | Bacteria reducing rate (S. aureus n°16 302; 1 μg/ml (2 MIC), 3 h): 0.0 Δ log10 CFU/ml | Bacteria reducing rate (S. aureus n°16 302; 1 μg/ml (2 MIC), 6 h): −0.2 Δ log10 CFU/ml | Bacteria reducing rate (S. aureus n°16 302; 1 μg/ml (2 MIC), 24 h): 1.5 Δ log10 CFU/ml | Viable bacteria count (S. aureus n°16 302; 1 μg/ml (2 MIC), 24 h): 7.9 Log10 CFU/ml | Bacteria reducing rate (S. aureus n°16 302; 2 μg/ml (4 MIC), 1 h): 0.0 Δ log10 CFU/ml | Bacteria reducing rate (S. aureus n°16 302; 2 μg/ml (4 MIC), 3 h): −0.1 Δ log10 CFU/ml | Bacteria reducing rate (S. aureus n°16 302; 2 μg/ml (4 MIC), 6 h): −0.5 Δ log10 CFU/ml | Viable bacteria count (S. aureus n°16 302; 2 μg/ml (4 MIC), 6 h): 6.0 Log10 CFU/ml | Bacteria reducing rate (S. aureus n°16 302; 2 μg/ml (4 MIC), 24 h): −2.5 Δ log10 CFU/ml | Viable bacteria count (S. aureus n°16 302; 4 μg/ml (8 MIC), 0 h): 6.5 Log10 CFU/ml | Bacteria reducing rate (S. aureus n°16 302; 4 μg/ml (8 MIC), 1 h): −0.2 Δ log10 CFU/ml | Bacteria reducing rate (S. aureus n°16 302; 4 μg/ml (8 MIC), 3 h): −0.7 Δ log10 CFU/ml | Viable bacteria count (S. aureus n°16 302; 4 μg/ml (8 MIC), 3 h): 5.8 Log10 CFU/ml | Bacteria reducing rate (S. aureus n°16 302; 4 μg/ml (8 MIC), 6 h): −2.3 Δ log10 CFU/ml | Bacteria reducing rate (S. aureus n°16 302; 4 μg/ml (8 MIC), 24 h): −4.1 Δ log10 CFU/ml | Viable bacteria count (S. aureus n°16 302; 4 μg/ml (8 MIC), 24 h): 2.4 Log10 CFU/ml | Bacteria reducing rate (S. aureus n°16 302; 8 μg/ml (16 MIC), 1 h): −0.8 Δ log10 CFU/ml | Viable bacteria count (S. aureus n°16 302; 8 μg/ml (16 MIC), 1 h): 5.7 Log10 CFU/ml | Bacteria reducing rate (S. aureus n°16 302; 8 μg/ml (16 MIC), 3 h): −2.3 Δ log10 CFU/ml | Bacteria reducing rate (S. aureus n°16 302; 8 μg/ml (16 MIC), 6 h): −3.8 Δ log10 CFU/ml | Viable bacteria count (S. aureus n°16 302; 8 μg/ml (16 MIC), 6 h): 2.7 Log10 CFU/ml | Bacteria reducing rate (S. aureus n°16 302; 8 μg/ml (16 MIC), 24 h): −5.2 Δ log10 CFU/ml | Bacteria reducing rate (S. aureus n°16 315; 0.25 μg/ml (½ MIC), 1 h): 0.3 Δ log10 CFU/ml | Viable bacteria count (S. aureus n°16 315; 0.25 μg/ml (½ MIC), 1 h): 6.7 Log10 CFU/ml | Bacteria reducing rate (S. aureus n°16 315; 0.25 μg/ml (½ MIC), 3 h): 0.3 Δ log10 CFU/ml | Viable bacteria count (S. aureus n°16 315; 0.25 μg/ml (½ MIC), 3 h): 6.7 Log10 CFU/ml | Bacteria reducing rate (S. aureus n°16 315; 0.25 μg/ml (½ MIC), 6 h): 0.7 Δ log10 CFU/ml | Bacteria reducing rate (S. aureus n°16 315; 0.25 μg/ml (½ MIC), 24 h): 1.8 Δ log10 CFU/ml | Bacteria reducing rate (S. aureus n°16 315; 0.5 μg/ml (MIC), 1 h): −0.1 Δ log10 CFU/ml | Bacteria reducing rate (S. aureus n°16 315; 0.5 μg/ml (MIC), 3 h): 0.1 Δ log10 CFU/ml | Viable bacteria count (S. aureus n°16 315; 0.5 μg/ml (MIC), 3 h): 6.6 Log10 CFU/ml | Bacteria reducing rate (S. aureus n°16 315; 0.5 μg/ml (MIC), 6 h): −0.2 Δ log10 CFU/ml | Bacteria reducing rate (S. aureus n°16 315; 0.5 μg/ml (MIC), 24 h): 0.5 Δ log10 CFU/ml | Viable bacteria count (S. aureus n°16 315; 0.5 μg/ml (MIC), 24 h): 7.0 Log10 CFU/ml | Bacteria reducing rate (S. aureus n°16 315; 1 μg/ml (2 MIC), 1 h): 0.0 Δ log10 CFU/ml | Bacteria reducing rate (S. aureus n°16 315; 1 μg/ml (2 MIC), 3 h): 0.1 Δ log10 CFU/ml | Viable bacteria count (S. aureus n°16 315; 1 μg/ml (2 MIC), 3 h): 6.6 Log10 CFU/ml | Bacteria reducing rate (S. aureus n°16 315; 1 μg/ml (2 MIC), 6 h): −0.3 Δ log10 CFU/ml | Bacteria reducing rate (S. aureus n°16 315; 1 μg/ml (2 MIC), 24 h): −1.2 Δ log10 CFU/ml | Bacteria reducing rate (S. aureus n°16 315; 2 μg/ml (4 MIC), 1 h): 0.1 Δ log10 CFU/ml | Viable bacteria count (S. aureus n°16 315; 2 μg/ml (4 MIC), 1 h): 6.5 Log10 CFU/ml | Bacteria reducing rate (S. aureus n°16 315; 2 μg/ml (4 MIC), 3 h): 0.2 Δ log10 CFU/ml | Viable bacteria count (S. aureus n°16 315; 2 μg/ml (4 MIC), 3 h): 6.6 Log10 CFU/ml | Bacteria reducing rate (S. aureus n°16 315; 2 μg/ml (4 MIC), 6 h): −1.1 Δ log10 CFU/ml | Bacteria reducing rate (S. aureus n°16 315; 2 μg/ml (4 MIC), 24 h): −2.3 Δ log10 CFU/ml | Bacteria reducing rate (S. aureus n°16 315; 4 μg/ml (8 MIC), 1 h): 0.0 Δ log10 CFU/ml | Bacteria reducing rate (S. aureus n°16 315; 4 μg/ml (8 MIC), 3 h): −0.7 Δ log10 CFU/ml | Viable bacteria count (S. aureus n°16 315; 4 μg/ml (8 MIC), 3 h): 5.7 Log10 CFU/ml | Bacteria reducing rate (S. aureus n°16 315; 4 μg/ml (8 MIC), 6 h): −1.8 Δ log10 CFU/ml | Viable bacteria count (S. aureus n°16 315; 4 μg/ml (8 MIC), 6 h): 4.6 Log10 CFU/ml | Bacteria reducing rate (S. aureus n°16 315; 4 μg/ml (8 MIC), 24 h): −5.1 Δ log10 CFU/ml | Bacteria reducing rate (S. aureus n°16 315; 8 μg/ml (16 MIC), 1 h): 0.1 Δ log10 CFU/ml | Bacteria reducing rate (S. aureus n°16 315; 8 μg/ml (16 MIC), 3 h): −1.5 Δ log10 CFU/ml | Viable bacteria count (S. aureus n°16 315; 8 μg/ml (16 MIC), 3 h): 4.8 Log10 CFU/ml | Bacteria reducing rate (S. aureus n°16 315; 8 μg/ml (16 MIC), 6 h): −2.3 Δ log10 CFU/ml | Bacteria reducing rate (S. aureus n°16 315; 8 μg/ml (16 MIC), 24 h): −5.0 Δ log10 CFU/ml
